In article PMC9516332 (Frontiers in Oncology, 2022):
Like-named read-outs stand apart in the source and are kept apart here.

Columns and labels:
Assay in all cases: Kinase panel profiling at 1 µmol/L (MSA or IMAP), percentage inhibition
Assay type in all cases: biochemical
[1] = molecular target: panel of 255 wild-type kinases (Homo sapiens, UniProt P50613); details: read-out: %-inhibition CDK7/CycH/MAT1
[2] = molecular target: panel of 255 wild-type kinases (Homo sapiens, UniProt P05129); details: kinase PKCγ; 1 µmol/L single concentration; read-out: %-inhibition at 1 µmol/L, PKCγ
[3] = molecular target: panel of 255 wild-type kinases (Homo sapiens, UniProt P57059); details: kinase SIK; 1 µmol/L single concentration; read-out: %-inhibition at 1 µmol/L, SIK
[4] = molecular target: panel of 255 wild-type kinases (Homo sapiens, UniProt P08922); details: kinase ROS; 1 µmol/L single concentration; read-out: %-inhibition at 1 µmol/L, ROS
[5] = molecular target: panel of 255 wild-type kinases (Homo sapiens, UniProt Q96SB4); details: kinase SRPK1; 1 µmol/L single concentration; read-out: %-inhibition at 1 µmol/L, SRPK1
[6] = molecular target: panel of 255 wild-type kinases (Homo sapiens, UniProt Q07912); details: ACK kinase assay; 1 µmol/L single concentration; read-out: %-inhibition ACK
[7] = molecular target: T1, panel of 255 wild-type kinases (Homo sapiens, UniProt Q13237); details: CGK2 kinase assay; 1 µmol/L single concentration; read-out: %-inhibition CGK2
T1 sequence (Q13237 1-762): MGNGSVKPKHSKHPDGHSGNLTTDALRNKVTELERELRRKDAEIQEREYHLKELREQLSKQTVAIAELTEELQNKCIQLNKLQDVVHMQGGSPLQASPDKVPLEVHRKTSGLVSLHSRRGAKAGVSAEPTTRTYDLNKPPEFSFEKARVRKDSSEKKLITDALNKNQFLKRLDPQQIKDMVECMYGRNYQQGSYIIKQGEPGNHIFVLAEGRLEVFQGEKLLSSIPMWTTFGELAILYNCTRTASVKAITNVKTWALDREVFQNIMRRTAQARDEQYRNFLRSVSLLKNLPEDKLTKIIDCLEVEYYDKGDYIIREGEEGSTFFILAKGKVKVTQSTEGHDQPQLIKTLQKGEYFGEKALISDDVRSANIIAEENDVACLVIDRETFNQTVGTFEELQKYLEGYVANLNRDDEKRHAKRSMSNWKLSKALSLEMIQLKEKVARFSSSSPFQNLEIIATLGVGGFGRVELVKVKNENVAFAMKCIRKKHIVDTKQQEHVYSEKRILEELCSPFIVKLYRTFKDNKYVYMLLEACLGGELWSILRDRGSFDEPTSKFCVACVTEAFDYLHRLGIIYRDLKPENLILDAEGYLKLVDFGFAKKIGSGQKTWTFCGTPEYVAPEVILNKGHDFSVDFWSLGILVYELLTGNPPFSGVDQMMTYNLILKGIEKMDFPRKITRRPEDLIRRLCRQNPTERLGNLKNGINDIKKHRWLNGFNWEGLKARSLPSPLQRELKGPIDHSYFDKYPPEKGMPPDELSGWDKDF

[8] = molecular target: panel of 255 wild-type kinases (Homo sapiens, UniProt O94804); details: kinase LOK; 1 µmol/L single concentration; read-out: %-inhibition at 1 µmol/L, LOK
[9] = molecular target: panel of 255 wild-type kinases (Homo sapiens, UniProt Q00534); details: CDK6/CycD3 kinase assay; 1 µmol/L single concentration; read-out: %-inhibition CDK6/CycD3
[10] = molecular target: panel of 255 wild-type kinases (Homo sapiens, UniProt P48730); details: kinase CK1δ; 1 µmol/L single concentration; read-out: %-inhibition at 1 µmol/L, CK1δ
[11] = molecular target: panel of 255 wild-type kinases (Homo sapiens, UniProt P54646); details: AMPKα2/β1/γ1 kinase assay; 1 µmol/L single concentration; read-out: %-inhibition AMPKα2/β1/γ1
[12] = molecular target: panel of 255 wild-type kinases (Homo sapiens, UniProt Q9H4A3); details: kinase WNK1; 1 µmol/L single concentration; read-out: %-inhibition at 1 µmol/L, WNK1
[13] = molecular target: panel of 255 wild-type kinases (Homo sapiens, UniProt P43405); details: read-out: %-inhibition at 1 µmol/L, SYK
[14] = molecular target: T2, panel of 255 wild-type kinases (Homo sapiens, UniProt O15146); details: MUSK; 1 µmol/L single concentration; read-out: %-inhibition, MUSK
T2 sequence (O15146 24-869): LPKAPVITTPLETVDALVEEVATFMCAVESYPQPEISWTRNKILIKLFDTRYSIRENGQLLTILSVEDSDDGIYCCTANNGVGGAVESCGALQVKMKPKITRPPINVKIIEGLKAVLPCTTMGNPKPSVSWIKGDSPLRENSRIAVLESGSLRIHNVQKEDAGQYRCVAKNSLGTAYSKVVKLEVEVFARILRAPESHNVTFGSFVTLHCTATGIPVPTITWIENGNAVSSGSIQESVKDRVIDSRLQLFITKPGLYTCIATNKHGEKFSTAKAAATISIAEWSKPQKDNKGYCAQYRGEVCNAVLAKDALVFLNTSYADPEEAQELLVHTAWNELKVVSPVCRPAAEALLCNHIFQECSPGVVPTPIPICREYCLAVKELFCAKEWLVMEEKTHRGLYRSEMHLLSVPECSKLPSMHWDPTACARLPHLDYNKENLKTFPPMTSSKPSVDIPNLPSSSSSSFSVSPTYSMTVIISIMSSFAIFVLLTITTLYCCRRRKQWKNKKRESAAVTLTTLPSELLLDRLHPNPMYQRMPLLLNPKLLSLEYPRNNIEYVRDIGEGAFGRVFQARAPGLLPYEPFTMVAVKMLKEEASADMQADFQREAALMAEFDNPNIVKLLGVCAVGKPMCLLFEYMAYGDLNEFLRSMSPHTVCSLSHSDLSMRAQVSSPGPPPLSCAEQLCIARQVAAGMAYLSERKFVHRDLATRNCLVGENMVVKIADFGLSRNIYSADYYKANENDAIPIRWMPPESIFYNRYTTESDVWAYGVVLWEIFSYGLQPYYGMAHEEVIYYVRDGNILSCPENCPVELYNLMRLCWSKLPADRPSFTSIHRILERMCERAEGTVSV

[15] = CDK7/CycH/MAT1 kinase assay, 1 µmol/L single concentration
[16] = kinase SYK, 1 µmol/L single concentration

SMILES	inhibition at 1 µM [1, 15] [%]	inhibition at 1 µM [2] [%]	inhibition at 1 µM [3] [%]	inhibition at 1 µM [4] [%]	inhibition at 1 µM [5] [%]	inhibition at 1 µM [6] [%]	inhibition at 1 µM [7] [%]	inhibition at 1 µM [8] [%]	inhibition at 1 µM [9] [%]	inhibition at 1 µM [10] [%]	inhibition at 1 µM [11] [%]	inhibition at 1 µM [12] [%]	inhibition at 1 µM [13, 16] [%]	inhibition at 1 µM [14] [%]	inhibition at 1 µM [1] [%]	inhibition at 1 µM [13] [%]
Cc1cc(Nc2ncnc3ccc(NC4=NC(C)(C)CO4)cc23)ccc1Oc1ccn2ncnc2c1 [tucatinib]	6	-1.73	0.717	21	-3	9	-0.162	6.43	-2.12	-2.17	-1.44	-4	-0.549	2.26	–	–
Cn1cnc2c(F)c(Nc3ccc(Br)cc3F)c(C(=O)NOCCO)cc21 [binimetinib]	-5	0.893	0.277	16	-3.37	-4	2.58	3.42	-0.0739	-4	-3.67	-3.5	-19	-4.46	–	–
Cc1nc(NC(=O)N2CCC[C@H]2C(N)=O)sc1-c1ccnc(C(C)(C)C(F)(F)F)c1 [alpelisib]	-4	-1.86	-10	-6	6	5.5	-5	-7	2	9	2.22	-4	-23	-8	–	–
C=CC(=O)N1CCC([C@@H]2CCNc3c(C(N)=O)c(-c4ccc(Oc5ccccc5)cc4)nn32)CC1 [zanubrutinib]	-9	-2.24	-2	1.9	-6	11	-0.389	5	3.49	-4	-5	0	-6.37	-1.31	–	–
CCN1CCN(c2ccc(Nc3cc(N(C)C(=O)Nc4c(Cl)c(OC)cc(OC)c4Cl)ncn3)cc2)CC1 [infigratinib]	9	0.114	30	29	-0.85	43	-2	34	17	-4.4	-2	-4.6	-17	24	–	–
COC(=O)N[C@@H](C)CNc1nccc(-c2cn(C(C)C)nc2-c2cc(Cl)cc(NS(C)(=O)=O)c2F)n1 [encorafenib]	-6.5	4	2.23	14	-5	-4.66	0.267	1.24	6	20	0.723	0.0799	-20	-1.72	–	–
CCc1nc(C(N)=O)c(Nc2ccc(N3CCC(N4CCN(C)CC4)CC3)c(OC)c2)nc1NC1CCOCC1 [gilteritinib]	–	19	59	100	-8	90	82	100	4	25	21	-3	70	99	31	–
COc1cc2ncnc(Nc3ccc(F)c(Cl)c3)c2cc1NC(=O)/C=C/CN1CCCCC1 [dacomitinib]	3.35	4	40	22	-9.5	32	10	86	-6	-6.63	-3	-4	-8	22	–	–
Cn1cc(-c2cc3c(N4CCN(c5ncc([C@@](C)(N)c6ccc(F)cc6)cn5)CC4)ncnn3c2)cn1 [avapritinib]	0.833	-2.11	37	67	-12	73	4.65	54	-0.371	11	3	-5.32	–	63	–	44
CCn1c(=O)c(-c2cc(NC(=O)Nc3ccccc3)c(F)cc2Br)cc2cnc(NC)cc21 [ripretinib]	-1.48	0.0973	66	3.79	-13	23	0.547	53	-7	-8	-22	-5	-8	11	–	–
